Data from patent US8927559B2, “Quinazolinone-type compounds as CRTH2 antagonists” (Merck Sharp & Dohme Corp., priority 2010, dated 2015).

Target: T1, CRTH2 receptor (hCRTH2) (Homo sapiens, UniProt Q9Y5Y4)
T1 construct: expressed in transfected cells; host or cells: HEK cells (HEK-hCRTH2 cell line), membranes
T1 sequence (Q9Y5Y4 1-395): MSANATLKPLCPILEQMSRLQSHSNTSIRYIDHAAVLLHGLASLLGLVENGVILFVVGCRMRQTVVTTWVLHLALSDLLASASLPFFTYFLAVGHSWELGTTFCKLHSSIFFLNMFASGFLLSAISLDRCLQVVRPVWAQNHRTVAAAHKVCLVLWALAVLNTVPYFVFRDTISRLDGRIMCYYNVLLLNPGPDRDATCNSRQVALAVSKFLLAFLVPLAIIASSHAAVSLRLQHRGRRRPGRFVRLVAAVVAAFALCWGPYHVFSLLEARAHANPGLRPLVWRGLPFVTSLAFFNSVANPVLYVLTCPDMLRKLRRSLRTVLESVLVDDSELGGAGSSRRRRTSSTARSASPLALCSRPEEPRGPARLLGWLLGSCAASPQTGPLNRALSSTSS
Experiment: Radioligand binding assay ([3H]PGD2 competition, membranes of HEK-hCRTH2 cell line)
Details: 3.0 nM [3H]PGD2, HEK-hCRTH2 membranes, 60 min, room temperature; read-out: Ki
Procedure, shortened: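 Membranes (8-20 μg protein) from HEK cells expressing human CRTH2 were incubated with [3H]PGD2 and competitor in 1% DMSO for 60 min at room temperature. Non-specific binding was defined with excess PGD2. Bound radioactivity was separated by filtration and counted by melt-on scintillation.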

| Ki | Compound |
| --- | --- |
| ≤ 10 nM | C=C(c1ccc(F)cc1)c1cc(-c2ccc3c(=O)n(-c4ccc(F)cc4)c(CCCCC(=O)O)nc3c2)no1 [Example 250] |
| ≤ 10 nM | CC[C@@](O)(c1ccc(F)cc1)c1cc(-c2ccc3c(=O)n(-c4ccc(F)cc4)c(CCCCC(=O)O)nc3c2)no1 [Example 256] |
| ≤ 10 nM | CC[C@](O)(c1ccc(F)cc1)c1cc(-c2ccc3c(=O)n(-c4ccc(F)cc4)c(CCCCC(=O)O)nc3c2)no1 [Example 257] |
| 10 to 50 nM | C[C@@](O)(c1ccc(F)cc1)c1cc(-c2ccc3c(=O)n(-c4ccc(F)cc4)c(CCCCC(=O)O)nc3c2)no1 [Example 258] |
| 10 to 50 nM | C[C@](O)(c1ccc(F)cc1)c1cc(-c2ccc3c(=O)n(-c4ccc(F)cc4)c(CCCCC(=O)O)nc3c2)no1 [Example 259] |
| ≤ 10 nM | CC(c1ccc(F)cc1)c1cc(-c2ccc3c(=O)n(-c4ccc(F)cc4)c(CCCCC(=O)O)nc3c2)no1 (stereo not drawn) [Example 260] |
| ≤ 10 nM | CCC(c1ccc(F)cc1)c1cc(-c2ccc3c(=O)n(-c4ccc(F)cc4)c(CCCCC(=O)O)nc3c2)no1 (stereo not drawn) [Example 261] |
| ≤ 10 nM | C[C@H](c1ccc(F)cc1)c1cc(-c2ccc3c(=O)n(-c4ccc(F)cc4)c(CCCCC(=O)O)nc3c2)no1 [Example 263] |
| ≤ 10 nM | C[C@@H](c1ccc(F)cc1)c1cc(-c2ccc3c(=O)n(-c4ccc(F)cc4)c(CCCCC(=O)O)nc3c2)no1 [Example 264] |
| 10 to 50 nM | C[C@@H](O)c1cc(-c2ccc3c(=O)n(-c4ccc(F)cc4)c(CCCCC(=O)O)nc3c2)no1 [Example 265] |
| 10 to 50 nM | C[C@@H](OCc1ccccc1)c1cc(-c2ccc3c(=O)n(-c4ccc(F)cc4)c(CCCCC(=O)O)nc3c2)no1 [Example 267] |
| ≤ 10 nM | C[C@H](Oc1ccc(F)cc1)c1cc(-c2ccc3c(=O)n(-c4ccc(F)cc4)c(CCCCC(=O)O)nc3c2)no1 [Example 268] |
| ≤ 10 nM | C[C@@H](OCc1cccc(F)c1)c1cc(-c2ccc3c(=O)n(-c4ccc(F)cc4)c(CCCCC(=O)O)nc3c2)no1 [Example 273] |
| 10 to 50 nM | C[C@@H](OCc1ccc(F)c(F)c1)c1cc(-c2ccc3c(=O)n(-c4ccc(F)cc4)c(CCCCC(=O)O)nc3c2)no1 [Example 274] |

Second part, the compound before the results:

| Compound | Ki |
| --- | --- |
| O=C(O)CCCCc1nc2cc(-c3noc(-c4nc5ccc(F)cc5o4)n3)ccc2c(=O)n1-c1ccc(F)cc1 [Example 248] | 10 to 50 nM |
| CC(c1ccc(F)cc1)c1nc(-c2ccc3c(=O)n(-c4ccc(F)cc4)c(CCCCC(=O)O)nc3c2)no1 (stereo not drawn) [Example 249] | 10 to 50 nM |
| N#Cc1ccccc1C1CC(c2ccc3c(=O)n(-c4ccc(F)cc4)c(CCCCC(=O)O)nc3c2)=NO1 (stereo not drawn) [Example 251] | ≤ 10 nM |
| CC1(c2ccncc2)CC(c2ccc3c(=O)n(-c4ccc(F)cc4)c(CCCCC(=O)O)nc3c2)=NO1 (stereo not drawn) [Example 252] | ≤ 10 nM |
| CC1(c2cccnc2)CC(c2ccc3c(=O)n(-c4ccc(F)cc4)c(CCCCC(=O)O)nc3c2)=NO1 (stereo not drawn) [Example 253] | ≤ 10 nM |
| CCCC1(c2ccccc2)CC(c2ccc3c(=O)n(-c4ccc(F)cc4)c(CCCCC(=O)O)nc3c2)=NO1 (stereo not drawn) [Example 254] | ≤ 10 nM |
| CCCCC1(c2ccccc2)CC(c2ccc3c(=O)n(-c4ccc(F)cc4)c(CCCCC(=O)O)nc3c2)=NO1 (stereo not drawn) [Example 255] | ≤ 10 nM |
| CC(c1ccc(F)cc1)C1(C)CC(c2ccc3c(=O)n(-c4ccc(F)cc4)c(CCCCC(=O)O)nc3c2)=NO1 (stereo not drawn) [Example 262] | ≤ 10 nM |
| O=C(O)CCCCc1nc2cc(-c3cc(COCc4cc(F)cc(F)c4)on3)ccc2c(=O)n1-c1ccc(F)cc1 [Example 269] | ≤ 10 nM |
| O=C(O)CCCCc1nc2cc(-c3cc(COCc4ccc(F)c(F)c4)on3)ccc2c(=O)n1-c1ccc(F)cc1 [Example 270] | ≤ 10 nM |
| O=C(O)CCCCc1nc2cc(-c3cc(COCc4cc(F)cc(Cl)c4)on3)ccc2c(=O)n1-c1ccc(F)cc1 [Example 271] | ≤ 10 nM |
| O=C(O)CCCCc1nc2cc(-c3cc(COCc4ccc(F)cc4F)on3)ccc2c(=O)n1-c1ccc(F)cc1 [Example 272] | ≤ 10 nM |
| O=C(O)CCCCc1nc2cc(-c3cc(COCc4cc(F)ccc4F)on3)ccc2c(=O)n1-c1ccc(F)cc1 [Example 275] | ≤ 10 nM |
